The structures appear in SMILES notation. Numbered stars: 1 amine (or outer) side, 2 acyl side, 3 side chain; on linkers, the order of the positions; unused ones are H or OH. Bridge positions count the residues as written; N and C are the ends. Square brackets hold non-standard residues; d marks the D form. Side chains are listed from the residue outwards. Peptide text beside a SMILES is read from it. * marks the point of attachment. Trp(1-CH2CO2Me) = COC(=O)Cn1cc(C[C@H](N)C(=O)O)c2ccccc21; Trp(1-CH2COOH) = N[C@@H](Cc1cn(CC(=O)O)c2ccccc12)C(=O)O; NHCH2CH2Ph(3,4-OCH2O) = c1cc2c(cc1CCN*)OCO2; NH(1R-phenylethyl) = C[C@@H](N*)c1ccccc1; NHCH2CHPh2 = c1ccc(C(CN*)c2ccccc2)cc1; Dab(CONH2) = NC(=O)NCC[C@H](N)C(=O)O; NHCHPh2 = c1ccc(C(N*)c2ccccc2)cc1; Hyp = O=C(O)[C@@H]1C[C@@H](O)CN1; NMeNle = CCCC[C@H](NC)C(=O)O; NMeA = CN[C@@H](C)C(=O)O; Dab = NCC[C@H](N)C(=O)O; Dap = NC[C@H](N)C(=O)O; NH(heptyl) = CCCCCCCN*; CO = O=C([*:1])[*:2]; N(Me)OMe = CON(C)*; X1 = CC(=O)NC(=O)*

The assay has as its target T1, PD-1/PD-L1 (Homo sapiens, UniProt Q9NZQ7).
T1 construct: TVMV protease site linker (C); made in house; host or cells: HEK293T cells
Briefly: PD-1/PD-L1 Homogenous Time-Resolved Fluorescence (HTRF) binding assay. As to conditions: PD-L1-His 10 nM final, PD-1-Ig 20 nM final; inhibitors pre-incubated with PD-L1-His for 15 m. An excerpt:
The ability of the compounds of formula (I) to bind to PD-L1 was investigated using a PD-1/PD-L1 Homogenous Time-Resolved Fluorescence (HTRF) binding assay.
The interaction of PD-1 and PD-L1 can be assessed using soluble, purified preparations of the extracellular domains of the two proteins. The PD-1 and PD-L1 protein extracellular domains were expressed as fusion proteins with detection tags, for PD-1, the tag was the Fc portion of Immunoglobulin (PD-1-Ig) and for PD-L1 it was the 6 histidine motif (PD-L1-His). All binding studies were performed in an HTRF assay buffer consisting of dPBS supplemented with 0.1% […] bovine serum albumin and 0.05% (v/v) Tween-20. For the h/PD-L1-His binding assay, inhibitors were pre-incubated with PD-L1-His (10 nM final) for 15 m in 4 μl of assay buffer, followed by addition of PD-1-Ig (20 nM final) in 1 μl of assay buffer and further incubation for 15 m. HTRF detection was achieved using europium cryptate-labeled anti-Ig (1 nM final) and allophycocyanin (APC) labeled anti-His (20 nM final). Antibodies were diluted in HTRF detection buffer and 5 μl was dispensed on top of the binding reaction. The reaction mixture was allowed to equilibrate for 30 minutes and the resulting signal (665 nm/620 nm ratio) was obtained using an EnVision fluorometer. Additional binding assays were established between the human proteins PD-1-Ig/PD-L2-His (20 & 5 nM, respectively) and CD80-His/PD-L1-Ig (100 & 10 nM, respectively).
Recombinant Proteins: Human PD-1 (25-167) with a C-terminal human Fc domain of immunoglobulin G (Ig) epitope tag [hPD-1 (25-167)-3S-IG] and human PD-L1 (18-239) with a C-terminal His epitope tag [hPD-L1(18-239)-TVMV-His] were expressed in HEK293T cells and purified sequentially by Protein A affinity chromatography and size exclusion chromatography. Human PD-L2-His and CD80-His was obtained through commercial sources.
Table 3 lists the IC50 values for representative examples of this disclosure measured in the PD-1/PD-L1 Homogenous Time-Resolved Fluorescence (HTRF) binding assay.
A general note: TR-FRET usually uses a lanthanide donor and a delayed reading to cut background.
As to `CCCC[C@H]1C(=O)N(C)[C@@H](CCCC)C(=O)N[C@@H](CC(C)C)C(=O)N[C@H](C(=O)NCC(N)=O)CSCC(=O)N[C@@H](Cc2ccc(O)cc2)C(=O)N(C)[C@@H](C)C(=O)N[C@@H](CC(N)=O)C(=O)N2CCC[C@H]2C(=O)N[C@@H](CNC(=O)NCC)C(=O)N[C@@H](CC(C)C)C(=O)N2C[C@H](O)C[C@H]2C(=O)N[C@@H](Cc2c[nH]c3ccccc23)C(=O)N[C@@H](CCNC(=O)NCC)C(=O)N[C@@H](Cc2cn(CC(=O)O)c3ccccc23)C(=O)N1C` [Example 1029] ({CH2CO}-Y[NMeA]NP[Dap]([CO-NHEt])L[Hyp]W[Dab]([CO-NHEt])[Trp(1-CH2COOH)][NMeNle][NMeNle]LCG-NH2; thioether N-14), the IC50 (commonly the point on the concentration scale where inhibition reaches its midpoint) is 4.9 nM. This counts as single-digit nanomolar. Under `CCCC[C@H]1C(=O)N(C)[C@@H](CCCC)C(=O)N[C@@H](CC(C)C)C(=O)N[C@H](C(=O)NCC(N)=O)CSCC(=O)N[C@@H](Cc2ccc(O)cc2)C(=O)N(C)[C@@H](C)C(=O)N[C@@H](CC(N)=O)C(=O)N2CCC[C@H]2C(=O)N[C@@H](CNC(=O)NC(C)=O)C(=O)N[C@@H](CC(C)C)C(=O)N2C[C@H](O)C[C@H]2C(=O)N[C@@H](Cc2c[nH]c3ccccc23)C(=O)N[C@@H](CCNC(N)=O)C(=O)N[C@@H](Cc2cn(CC(=O)O)c3ccccc23)C(=O)N1C` [Example 1030] ({CH2CO}-Y[NMeA]NP[Dap](X1)L[Hyp]W[Dab(CONH2)][Trp(1-CH2COOH)][NMeNle][NMeNle]LCG-NH2; thioether N-14) stands 4 nM.

In the case of `CCCC[C@H]1C(=O)N(C)[C@@H](CCCC)C(=O)N[C@@H](CC(C)C)C(=O)N[C@H](C(=O)NCC(N)=O)CSCC(=O)N[C@@H](Cc2ccc(O)cc2)C(=O)N(C)[C@@H](C)C(=O)N[C@@H](CC(N)=O)C(=O)N2CCC[C@H]2C(=O)N[C@@H](CNC(=O)NC(C)=O)C(=O)N[C@@H](CC(C)C)C(=O)N2C[C@H](O)C[C@H]2C(=O)N[C@@H](Cc2c[nH]c3ccccc23)C(=O)N[C@@H](CCNC(=O)NC(C)=O)C(=O)N[C@@H](Cc2cn(CC(=O)O)c3ccccc23)C(=O)N1C` [Example 1031] ({CH2CO}-Y[NMeA]NP[Dap](X1)L[Hyp]W[Dab](X1)[Trp(1-CH2COOH)][NMeNle][NMeNle]LCG-NH2; thioether N-14), the 50% inhibitory concentration (IC50) worked out at 4.7 nM. This IC50 and that of the compound before are within 1.5-fold of each other.

The compound `CCCC[C@H]1C(=O)N(C)[C@@H](CCCC)C(=O)N[C@@H](CC(C)C)C(=O)N[C@H](C(=O)NCC(N)=O)CSCC(=O)N[C@@H](Cc2ccc(O)cc2)C(=O)N(C)[C@@H](C)C(=O)N[C@@H](CC(N)=O)C(=O)N2CCC[C@H]2C(=O)N[C@@H](CNC(=O)N(C)C)C(=O)N[C@@H](CC(C)C)C(=O)N2C[C@H](O)C[C@H]2C(=O)N[C@@H](Cc2c[nH]c3ccccc23)C(=O)N[C@@H](CCNC(=O)N(C)C)C(=O)N[C@@H](Cc2cn(CC(=O)O)c3ccccc23)C(=O)N1C` [Example 1032] ({CH2CO}-Y[NMeA]NP[Dap]([CO-NMe2])L[Hyp]W[Dab]([CO-NMe2])[Trp(1-CH2COOH)][NMeNle][NMeNle]LCG-NH2; thioether N-14) displayed an IC50 of 0.74 nM. Under `CCCCCCCNC(=O)NCC[C@@H]1NC(=O)[C@H](Cc2c[nH]c3ccccc23)NC(=O)[C@@H]2C[C@@H](O)CN2C(=O)[C@H](CC(C)C)NC(=O)[C@H](CNC(=O)NCCCCCCC)NC(=O)[C@@H]2CCCN2C(=O)[C@H](CC(N)=O)NC(=O)[C@H](C)N(C)C(=O)[C@H](Cc2ccc(O)cc2)NC(=O)CSC[C@@H](C(=O)NCC(N)=O)NC(=O)[C@H](CC(C)C)NC(=O)[C@H](CCCC)N(C)C(=O)[C@H](CCCC)N(C)C(=O)[C@H](Cc2cn(CC(=O)O)c3ccccc23)NC1=O` [Example 1033] ({CH2CO}-Y[NMeA]NP[Dap]([CO-NH(heptyl)])L[Hyp]W[Dab]([CO-NH(heptyl)])[Trp(1-CH2COOH)][NMeNle][NMeNle]LCG-NH2; thioether N-14) stands 7.6 nM; under `CCCCCCCNC(=O)NCC[C@@H]1NC(=O)[C@H](Cc2c[nH]c3ccccc23)NC(=O)[C@@H]2C[C@@H](O)CN2C(=O)[C@H](CC(C)C)NC(=O)[C@H](CNC(=O)NCCCCCCC)NC(=O)[C@@H]2CCCN2C(=O)[C@H](CC(N)=O)NC(=O)[C@H](C)N(C)C(=O)[C@H](Cc2ccc(O)cc2)NC(=O)CSC[C@@H](C(=O)NCC(N)=O)NC(=O)[C@H](CC(C)C)NC(=O)[C@H](CCCC)N(C)C(=O)[C@H](CCCC)N(C)C(=O)[C@H](Cc2cn(CC(=O)O)c3ccccc23)NC1=O` [Example 1035] ({CH2CO}-Y[NMeA]NP[Dap]([CO-NH(heptyl)])L[Hyp]W[Dab]([CO-NH(heptyl)])[Trp(1-CH2COOH)][NMeNle][NMeNle]LCG-NH2; thioether N-14), 8.3 nM; under `CCCC[C@H]1C(=O)N(C)[C@@H](CCCC)C(=O)N[C@@H](CC(C)C)C(=O)N[C@H](C(=O)NCC(N)=O)CSCC(=O)N[C@@H](Cc2ccc(O)cc2)C(=O)N(C)[C@@H](C)C(=O)N[C@@H](CC(N)=O)C(=O)N2CCC[C@H]2C(=O)N[C@@H](CNC(=O)N(C)OC)C(=O)N[C@@H](CC(C)C)C(=O)N2C[C@H](O)C[C@H]2C(=O)N[C@@H](Cc2c[nH]c3ccccc23)C(=O)N[C@@H](CCNC(=O)N(C)OC)C(=O)N[C@@H](Cc2cn(CC(=O)OC)c3ccccc23)C(=O)N1C` [Example 1036] ({CH2CO}-Y[NMeA]NP[Dap]([CO-N(Me)OMe])L[Hyp]W[Dab]([CO-N(Me)OMe])[Trp(1-CH2CO2Me)][NMeNle][NMeNle]LCG-NH2; thioether N-14), 1.4 nM.

As for `CCCC[C@H]1C(=O)N(C)[C@@H](CCCC)C(=O)N[C@@H](CC(C)C)C(=O)N[C@H](C(=O)NCC(N)=O)CSCC(=O)N[C@@H](Cc2ccc(O)cc2)C(=O)N(C)[C@@H](C)C(=O)N[C@@H](CC(N)=O)C(=O)N2CCC[C@H]2C(=O)N[C@@H](CNC(=O)NC(c2ccccc2)c2ccccc2)C(=O)N[C@@H](CC(C)C)C(=O)N2C[C@H](O)C[C@H]2C(=O)N[C@@H](Cc2c[nH]c3ccccc23)C(=O)N[C@@H](CCNC(=O)NC(c2ccccc2)c2ccccc2)C(=O)N[C@@H](Cc2cn(CC(=O)O)c3ccccc23)C(=O)N1C` [Example 1037] ({CH2CO}-Y[NMeA]NP[Dap]([CO-NHCHPh2])L[Hyp]W[Dab]([CO-NHCHPh2])[Trp(1-CH2COOH)][NMeNle][NMeNle]LCG-NH2; thioether N-14), the IC50 was determined as 5.1 nM. Compound `CCCC[C@H]1C(=O)N(C)[C@@H](CCCC)C(=O)N[C@@H](CC(C)C)C(=O)N[C@H](C(=O)NCC(N)=O)CSCC(=O)N[C@@H](Cc2ccc(O)cc2)C(=O)N(C)[C@@H](C)C(=O)N[C@@H](CC(N)=O)C(=O)N2CCC[C@H]2C(=O)N[C@@H](CNC(=O)NCCc2ccc3c(c2)OCO3)C(=O)N[C@@H](CC(C)C)C(=O)N2C[C@H](O)C[C@H]2C(=O)N[C@@H](Cc2c[nH]c3ccccc23)C(=O)N[C@@H](CCN)C(=O)N[C@@H](Cc2cn(CC(=O)O)c3ccccc23)C(=O)N1C` [Example 1039] ({CH2CO}-Y[NMeA]NP[Dap]([CO-NHCH2CH2Ph(3,4-OCH2O)])L[Hyp]W[Dab][Trp(1-CH2COOH)][NMeNle][NMeNle]LCG-NH2; thioether N-14) returned an IC50 of 1.5 nM. In turn, `CCCC[C@H]1C(=O)N(C)[C@@H](CCCC)C(=O)N[C@@H](CC(C)C)C(=O)N[C@H](C(=O)NCC(N)=O)CSCC(=O)N[C@@H](Cc2ccc(O)cc2)C(=O)N(C)[C@@H](C)C(=O)N[C@@H](CC(N)=O)C(=O)N2CCC[C@H]2C(=O)N[C@@H](CNC(=O)NCC(c2ccccc2)c2ccccc2)C(=O)N[C@@H](CC(C)C)C(=O)N2C[C@H](O)C[C@H]2C(=O)N[C@@H](Cc2c[nH]c3ccccc23)C(=O)N[C@@H](CCN)C(=O)N[C@@H](Cc2cn(CC(=O)O)c3ccccc23)C(=O)N1C` [Example 1040] ({CH2CO}-Y[NMeA]NP[Dap]([CO-NHCH2CHPh2])L[Hyp]W[Dab][Trp(1-CH2COOH)][NMeNle][NMeNle]LCG-NH2; thioether N-14) had a half-inhibitory concentration (IC50) of 3 nM. On to `CCCC[C@H]1C(=O)N(C)[C@@H](CCCC)C(=O)N[C@@H](CC(C)C)C(=O)N[C@H](C(=O)NCC(N)=O)CSCC(=O)N[C@@H](Cc2ccc(O)cc2)C(=O)N(C)[C@@H](C)C(=O)N[C@@H](CC(N)=O)C(=O)N2CCC[C@H]2C(=O)N[C@@H](CNC(=O)N[C@H](C)c2ccccc2)C(=O)N[C@@H](CC(C)C)C(=O)N2C[C@H](O)C[C@H]2C(=O)N[C@@H](Cc2c[nH]c3ccccc23)C(=O)N[C@@H](CCN)C(=O)N[C@@H](Cc2cn(CC(=O)O)c3ccccc23)C(=O)N1C` [Example 1041] ({CH2CO}-Y[NMeA]NP[Dap]([CO-NH(1R-phenylethyl)])L[Hyp]W[Dab][Trp(1-CH2COOH)][NMeNle][NMeNle]LCG-NH2; thioether N-14), for which the half-maximal inhibitory concentration (IC50) stood at 4.4 nM.

For the origin of these results see patent US20220251141A1, “IMMUNOMODULATORS” (Bristol-Myers Squibb Company, priority 2019, published 2022).
